This experiment relates to P388 leukemia ip, CD2F1 mice, survival T/C. Put plainly: NCI In Vivo Anticancer Drug Screen. Data for tumor model P388 Leukemia (intraperitoneal) in CD2F1 (CDF1) mice. Particulars: endpoint: median survival time, higher = longer survival. In a few lines: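 Mice carrying the transplanted tumor received test compound or vehicle. Survival was recorded in each group, and the value is the treated-group measurement divided by that of the vehicle-treated control group.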

Where [1] appears, read: dose: 60.0 mg/kg/injection, schedule: Q01DX005 (ip), vehicle: saline with Tween-80.
Setting [2] is: dose: 120.0 mg/kg/injection, schedule: Q01DX005 (ip), vehicle: saline with Tween-80.
[3] abbreviates: dose: 240.0 mg/kg/injection, schedule: Q01DX005 (ip), vehicle: saline with Tween-80.
The mark [4] stands for this setting: dose: 50.0 mg/kg/injection, schedule: Q01DX009 (ip), vehicle: saline with Tween-80.
The mark [5] stands for this setting: dose: 100.0 mg/kg/injection, schedule: Q01DX009 (ip), vehicle: saline with Tween-80.
The mark [6] stands for this setting: dose: 50.0 mg/kg/injection, schedule: Q01DX005 (ip), vehicle: saline.

Values joined by “and” are separate entries in the source; they are usually repeats but may differ in a detail not shown here. Equal entries are not always repeated. Inconclusive results and toxic doses are left out.

On to `COc1ccc2cc(C(=O)c3cc4ccc(OC)cc4oc3=O)c(=O)oc2c1`, for which the T/C was 104 % of control under setting [1], 101 % of control under setting [2] and 96 % of control under setting [3].

Regarding `O=C(OCC(Cl)(Cl)Cl)N1[C@@H]2C=C[C@@H](N1C(=O)OCC(Cl)(Cl)Cl)[C@@]13CCCC21O3` (stereo not given in full), the T/C (dose: 50.0 mg/kg/injection, schedule: Q01DX005 (ip), vehicle: Klucel (hydroxypropylcellulose) (HPC)) is 103 % of control; the T/C (dose: 100.0 mg/kg/injection, schedule: Q01DX005 (ip), vehicle: Klucel (hydroxypropylcellulose) (HPC)) is 105 % of control; the T/C (dose: 200.0 mg/kg/injection, schedule: Q01DX005 (ip), vehicle: Klucel (hydroxypropylcellulose) (HPC)) was 103 % of control.

`ClC1COc2cc(c3ccccc3c2)-c2c(ccc3ccccc23)OCCOCCOc2ccc3ccccc3c2-c2c(ccc3ccccc23)OCC(Cl)O1` (stereo not given): the T/C runs as follows: (dose: 100.0 mg/kg/injection, schedule: Q04DX002 (ip), vehicle: saline with Tween-80) 102 % of control; (dose: 200.0 mg/kg/injection, schedule: Q04DX002 (ip), vehicle: saline with Tween-80) 102 % of control; (dose: 400.0 mg/kg/injection, schedule: Q04DX002 (ip), vehicle: saline with Tween-80) 105 % of control.

Turning to `CN(C)C(OCCCC(=O)O)C(Cl)(Cl)Cl` (stereo not given), the T/C (dose: 50.0 mg/kg/injection, schedule: Q01DX009 (ip), vehicle: Klucel (hydroxypropylcellulose) (HPC)) is 113 % of control; the T/C (dose: 100.0 mg/kg/injection, schedule: Q01DX009 (ip), vehicle: Klucel (hydroxypropylcellulose) (HPC)) is 96 % of control; the T/C (dose: 200.0 mg/kg/injection, schedule: Q01DX009 (ip), vehicle: Klucel (hydroxypropylcellulose) (HPC)) is 109 % of control.

On to `O=C(O)C1CCC2(CC1)SCC1(CS2)CSC2(CCC(C(=O)O)CC2)SC1` (stereo not given), for which the T/C is 104 % of control (dose: 7.5 mg/kg/injection, schedule: Q01DX009 (ip), vehicle: saline with Tween-80); 99 % of control (dose: 15.0 mg/kg/injection, schedule: Q01DX009 (ip), vehicle: saline with Tween-80); 107 % of control (dose: 30.0 mg/kg/injection, schedule: Q01DX009 (ip), vehicle: saline with Tween-80).

For the compound `O=C(O)c1cc2c(Cl)cccc2[nH]1`, the T/C (dose: 25.0 mg/kg/injection, schedule: Q01DX009 (ip), vehicle: saline with Tween-80) is 90 % of control; the T/C under setting [4] is 90 % of control; the T/C under setting [5] is 90 % of control.

As to `CCCCCCCCCC[N+](C)(C)CCO`, the T/C was 118 % of control (dose: 12.5 mg/kg/injection, schedule: Q01DX009 (ip), vehicle: saline); 109 % of control (dose: 25.0 mg/kg/injection, schedule: Q01DX009 (ip), vehicle: saline); 116 % of control (dose: 50.0 mg/kg/injection, schedule: Q01DX009 (ip), vehicle: saline).

`CCOC(=O)C(C(C)=O)C(=O)c1ccccc1` (stereo not given): the T/C reads like this: (dose: 50.0 mg/kg/injection, schedule: Q01DX009 (ip), vehicle: saline + alcohol) 95 % of control; (dose: 100.0 mg/kg/injection, schedule: Q01DX009 (ip), vehicle: saline + alcohol) 101 % of control; (dose: 200.0 mg/kg/injection, schedule: Q01DX009 (ip), vehicle: saline + alcohol) 96 % of control.

On to `O=C(CNC(=O)OCc1ccccc1)OC(=O)CNC(=O)OCc1ccccc1`, for which the T/C by setting is: (dose: 100.0 mg/kg/injection, schedule: Q04DX002 (ip), vehicle: Klucel (hydroxypropylcellulose) (HPC)) 96 % of control; (dose: 200.0 mg/kg/injection, schedule: Q04DX002 (ip), vehicle: Klucel (hydroxypropylcellulose) (HPC)) 93 % of control; (dose: 400.0 mg/kg/injection, schedule: Q04DX002 (ip), vehicle: Klucel (hydroxypropylcellulose) (HPC)) 93 % of control.

For `O=C1C=C(N2CC2)C(=O)C(N2CC2)=C1N1CC1`, the T/C was 155 % of control (dose: 0.02 mg/kg/injection, schedule: Q01DX005 (ip), vehicle: saline); 157 % of control and 158 % of control and 175 % of control (dose: 0.04 mg/kg/injection, schedule: Q01DX005 (ip), vehicle: saline); 191 % of control and 194 % of control and 214 % of control (dose: 0.08 mg/kg/injection, schedule: Q01DX005 (ip), vehicle: saline); 215 % of control and 226 % of control and 287 % of control (dose: 0.16 mg/kg/injection, schedule: Q01DX005 (ip), vehicle: saline); 111 % of control (dose: 0.32 mg/kg/injection, schedule: Q01DX005 (ip), vehicle: saline).

With `CCc1ccc2c(c1)N(CCCN(CCCl)CCCl)c1ccccc1S2`, the T/C by setting is: (dose: 0.78 mg/kg/injection, schedule: Q01DX009 (ip), vehicle: saline with Tween-80) 106 % of control; (dose: 1.56 mg/kg/injection, schedule: Q01DX009 (ip), vehicle: saline with Tween-80) 101 % of control and 115 % of control.

`CNc1cccc2c1C(=O)c1ccccc1C2=O`: the T/C by setting is: (dose: 50.0 mg/kg/injection, schedule: Q04DX003 (ip), vehicle: saline with Tween-80) 93 % of control; (dose: 100.0 mg/kg/injection, schedule: Q04DX003 (ip), vehicle: saline with Tween-80) 91 % of control; (dose: 200.0 mg/kg/injection, schedule: Q04DX003 (ip), vehicle: saline with Tween-80) 97 % of control; (dose: 400.0 mg/kg/injection, schedule: Q04DX003 (ip), vehicle: saline with Tween-80) 90 % of control.

In the case of `C=C1CC(OC(C)=O)/C=C(/C)CCC(C(C)(C)O)CC1O` (stereo not given), the T/C (dose: 14.5 mg/kg/injection, schedule: Q01DX005 (ip), vehicle: Klucel + Tween-80) is 96 % of control; the T/C (dose: 29.0 mg/kg/injection, schedule: Q01DX005 (ip), vehicle: Klucel + Tween-80) is 96 % of control; the T/C (dose: 58.0 mg/kg/injection, schedule: Q01DX005 (ip), vehicle: Klucel + Tween-80) is 97 % of control; the T/C (dose: 116.0 mg/kg/injection, schedule: Q01DX005 (ip), vehicle: Klucel + Tween-80) was 100 % of control.

`CC(C)C1=CC2C3C(=O)NC(=O)C3C1C1C3C(=O)NC(=O)C3C21` (stereo not given): the T/C is, setting by setting: (dose: 60.0 mg/kg/injection, schedule: Q01DX005 (ip), vehicle: saline) 98 % of control; (dose: 120.0 mg/kg/injection, schedule: Q01DX005 (ip), vehicle: saline) 100 % of control; (dose: 240.0 mg/kg/injection, schedule: Q01DX005 (ip), vehicle: saline) 100 % of control.

`O=C(O)C(Cc1ccc(O)cc1)NC(=O)C(F)(F)F` (stereo not given): the T/C was 98 % of control and 100 % of control under setting [4]; 93 % of control under setting [5]; 90 % of control (dose: 200.0 mg/kg/injection, schedule: Q01DX009 (ip), vehicle: saline with Tween-80).

In the case of `NC(=O)c1coc2c1C(=O)c1ccc3ccccc3c1CC2`, the T/C is, setting by setting: under setting [1], 102 % of control; under setting [2], 102 % of control; under setting [3], 108 % of control.

Turning to `O=C1NC2(CCCCC2)C(=O)N1CCN1C(=O)NC2(CCCCC2)C1=O`, the T/C reads like this: (dose: 0.75 mg/kg/injection, schedule: Q01DX009 (ip), vehicle: saline) 104 % of control; (dose: 1.5 mg/kg/injection, schedule: Q01DX009 (ip), vehicle: saline) 91 % of control; (dose: 3.0 mg/kg/injection, schedule: Q01DX009 (ip), vehicle: saline) 106 % of control; (dose: 6.0 mg/kg/injection, schedule: Q01DX009 (ip), vehicle: saline) 118 % of control; (dose: 12.0 mg/kg/injection, schedule: Q01DX009 (ip), vehicle: saline) 106 % of control.

As for `O=c1[nH]cn[nH]1`, the T/C runs as follows: under setting [6], 101 % of control; (dose: 100.0 mg/kg/injection, schedule: Q01DX005 (ip), vehicle: saline) 98 % of control; (dose: 200.0 mg/kg/injection, schedule: Q01DX005 (ip), vehicle: saline) 95 % of control.

As to `COc1cc(NCCCCCNC(C)C)c2ncc(C)c(C)c2c1`, the T/C runs as follows: (dose: 12.5 mg/kg/injection, schedule: Q01DX005 (ip), vehicle: saline) 102 % of control; (dose: 25.0 mg/kg/injection, schedule: Q01DX005 (ip), vehicle: saline) 100 % of control; under setting [6], 100 % of control.

With `CCCC(N)C(=O)NC(Cc1c[nH]c2ccccc12)C(=O)O` (stereo not given), the T/C (dose: 50.0 mg/kg/injection, schedule: Q01DX005 (ip), vehicle: saline with Tween-80) is 101 % of control; the T/C (dose: 100.0 mg/kg/injection, schedule: Q01DX005 (ip), vehicle: saline with Tween-80) is 102 % of control; the T/C (dose: 200.0 mg/kg/injection, schedule: Q01DX005 (ip), vehicle: saline with Tween-80) was 103 % of control.

The values above are taken from PubChem BioAssay AID330 (DTP/NCI, 2004).
